Assays:
RSV = assay: Preliminary studies of RSV infection with an inhibitor of clathrin-mediated endocytosis; format: cell-based, human respiratory syncytial virus (RSV); conditions: non-toxic concentrations
ATP1A1 = biological target: T1, ATP1A1 (Homo sapiens, UniProt P05023); assay: RSV-induced ATP1A1 clustering in A549 cells by confocal immunofluorescence; format: cell-based; conditions: A549 treated overnight, RSV MOI=5 PFU/cell, 5 hours
T1 construct: ATP1A1 being expressed ubiquitously and being the predominant isoform expressed in A549 cells; endogenous in cells; host or cells: A549 cells (ATCC CCL-185)
Text: Whether PST2238 treatment had any effect on the clustering of ATP1A1 and RSV proteins was also investigated.
Immunofluorescence microscopy.

[1] = adducin- and ouabain-induced forms of hypertension; normal systolic blood pressure of healthy individuals not lowered; cited from earlier work
[2] = including 5 mg twice a day for a week and 0.5 mg per day for three months; cited from earlier work
EGFR Tyr845 = assay: EGFR phosphorylation array (pTyr845) in A549 cells; conditions: without RSV infection
Experimental: A549 cells were treated as indicated (either siRNA knock down for 48 h or pre-treatment with the chemical compounds ouabain [25 n1\4], PST2238 [40 μM] or Src Inhibitor-I (SrcI-I) [6.25 μM] and PP2 [12.5 μM] for 5 h pre-inoculation). Cells were serum starved overnight, before they were inoculated with wt RSV (MOI=5 PFU/cell) and incubated at 37° C. Cells were lysed 5 h p.i. and subjected to a phospho-specific EGFR array (RayBiotech, Inc.). (FIG. 8A) Representative array spots of pTyr845 EGFR and its corresponding pan EGFR for each treatment are shown. […] (FIG. 8D) As control, PST2238 or Ouabain pretreated A549 cells were stimulated with EGF (100 ng/ml) for 45 min and the pTyr845 EGFR signal was quantified. The statistical significance of the differences were determined by one-way analysis of variance with Dunnett multiple-comparison test and the significance p-values are indicated for each comparison. […]
Quantification of EGFR phosphorylation. […] The protein concentration of the lysate was quantified by bicinchoninic acid (BCA) assay (Thermo Fisher Scientific) and lysate containing 150 μg total protein was used for each array. […] The light emission of the array spots was detected by exposure to X-ray films. The films were scanned and the intensity values of each spot were quantified by ImageQuant TL (Array Version 8.1, GE Healthcare). […]

RSV-GFP = RSV-GFP infection of A549 cells, GFP intensity of total well by ELISA reader; conditions: discussion statement
Experimental: Quantification of RSV infection by viral expressed GFP. For the evaluation of RSV infection, RSV-GFP, a recombinantly derived virus that expresses enhanced green fluorescent protein (eGFP) from an additional gene inserted between the P and M genes, was used. SiRNA transfected or pre-treated A549 cells, seeded in a 12-well plate, were inoculated with an MOI of 1.0 PFU/cell. Inoculum was adsorbed for 2 h by incubating on a rocking platform at 37° C., after which the inoculum was washed off and replaced with fresh media. The infected cells were incubated for 17 h at 37° C. and 5% CO2 and the infectivity was evaluated by quantifying GFP either by ELISA reader or flow cytometry. For the ELISA reader quantification, the GFP intensity of the infected monolayer was quantified by an area scan (average GFP intensity of 29 individual measurements per well) on a Synergy 2 ELISA reader (BioTek). […] For the flow cytometry based GFP quantification, the cells were detached with 1 mM EDTA, stained with LIVE/DEAD fixable dead cell staining kit (Life Technologies), and fixed with 4% paraformaldehyde (PFA, Electron Microscopy Science, PA). The GFP intensities of single, live cells were analyzed on a Canto II flow cytometer (BD Biosciences, Franklin Lakes, N.J.).

For CN(C)CCCN1c2ccccc2Sc2ccc(Cl)cc21 [chlorpromazine], the “effects on RSV infection” value (RSV) was “did not detect effects”.

In the case of C[C@]12CC[C@H](O)C[C@H]1CC[C@@H]1[C@@H]2CC[C@]2(C)[C@@](O)(c3ccoc3)CC[C@]12O [PST2238, (3β,5β,14β)-21,23-Epoxy-24-norchola-20,22-diene-3,14,17-triol], the “effect on the clustering of ATP1A1” value (ATP1A1) is listed as “no apparent effect”, the “effect on blood pressure” value [1] is listed as “lowers the blood pressure” and the “toxicity in human and animal models” value [2] is listed as “non-toxic”.

With C[C@@H]1O[C@@H](O[C@H]2C[C@@H](O)[C@]3(CO)[C@@H]4[C@@H](CC[C@]3(O)C2)[C@@]2(O)CCC(C3=CC(=O)OC3)[C@@]2(C)C[C@@H]4O)[C@H](O)[C@H](O)[C@H]1O (stereo partly drawn) [ouabain, (1β,3β,5β,11α)-3-[(6-Deoxy-α-L-mannopyranosyl)oxy]-1,5,11,14,19-pentahydroxycard-20(22)-enolide] the “detection of phosphorylation of EGFR Tyr845 following treatment with compound alone” value (EGFR Tyr845) was “not following treatment with ouabain” and the “concentrations at which inhibition of RSV infection was achieved” value (RSV-GFP) was “sub-nanomolar”.
